{
  "source": "patent US20080118589A1",
  "about": "“Pharmaceutical formulations of rhodiola crenulata and methods of use thereof” (priority 2005, published 2008)",
  "key": {"MDA-MB-231 Cells [1]": {"tested_on": "MDA-MB-231 Cells", "experiment": "MTS assay, growth arrest by retinoids +/-Rhodiola", "type": "cell-based, human", "details": "for chemosensitivity (MTS assay): retinoid with Rhodiola, data not shown", "method": "Rhodiola crenulata extracts were administered to MDA-MB-231 cells in the presence or absence of either 1 μM or 10 μM all trans retinoic acid (ATRA), and cell viability/cytotoxicity was monitored using the MTS assay, as described above, and monitored for absorbance at 490 nm as indicative of chemosensitivity/resistance to the ATRA administered."}, "MDA-MB-231 Cells [2]": {"tested_on": "MDA-MB-231 Cells", "experiment": "Death time course with Tamoxifen, Rhodiola, or both", "type": "cell-based, human", "text": "FIG. 8 is a graph showing a Death Time Course of MDA-MB-231 Cells treated with Tamoxifen, Rhodiola, or Tamoxifen plus Rhodiola.\nFIG. 8 is similar to FIG. 7, but this experiment involved a time course of MDA-MB-231 Cells treated with Tamoxifen or Rhodiola alone, or Tamoxifen and Rhodiola together."}, "[3]": {"target": "T1, telomerase activity in MDA-MB-231 breast cancer cells (Homo sapiens, UniProt O14746)", "T1 construct": "telomerase activity in human MDA-MB-231 breast cancer cells; endogenous in cells; host or cells: MDA-MB-231", "T1 sequence (O14746 whole entry)": "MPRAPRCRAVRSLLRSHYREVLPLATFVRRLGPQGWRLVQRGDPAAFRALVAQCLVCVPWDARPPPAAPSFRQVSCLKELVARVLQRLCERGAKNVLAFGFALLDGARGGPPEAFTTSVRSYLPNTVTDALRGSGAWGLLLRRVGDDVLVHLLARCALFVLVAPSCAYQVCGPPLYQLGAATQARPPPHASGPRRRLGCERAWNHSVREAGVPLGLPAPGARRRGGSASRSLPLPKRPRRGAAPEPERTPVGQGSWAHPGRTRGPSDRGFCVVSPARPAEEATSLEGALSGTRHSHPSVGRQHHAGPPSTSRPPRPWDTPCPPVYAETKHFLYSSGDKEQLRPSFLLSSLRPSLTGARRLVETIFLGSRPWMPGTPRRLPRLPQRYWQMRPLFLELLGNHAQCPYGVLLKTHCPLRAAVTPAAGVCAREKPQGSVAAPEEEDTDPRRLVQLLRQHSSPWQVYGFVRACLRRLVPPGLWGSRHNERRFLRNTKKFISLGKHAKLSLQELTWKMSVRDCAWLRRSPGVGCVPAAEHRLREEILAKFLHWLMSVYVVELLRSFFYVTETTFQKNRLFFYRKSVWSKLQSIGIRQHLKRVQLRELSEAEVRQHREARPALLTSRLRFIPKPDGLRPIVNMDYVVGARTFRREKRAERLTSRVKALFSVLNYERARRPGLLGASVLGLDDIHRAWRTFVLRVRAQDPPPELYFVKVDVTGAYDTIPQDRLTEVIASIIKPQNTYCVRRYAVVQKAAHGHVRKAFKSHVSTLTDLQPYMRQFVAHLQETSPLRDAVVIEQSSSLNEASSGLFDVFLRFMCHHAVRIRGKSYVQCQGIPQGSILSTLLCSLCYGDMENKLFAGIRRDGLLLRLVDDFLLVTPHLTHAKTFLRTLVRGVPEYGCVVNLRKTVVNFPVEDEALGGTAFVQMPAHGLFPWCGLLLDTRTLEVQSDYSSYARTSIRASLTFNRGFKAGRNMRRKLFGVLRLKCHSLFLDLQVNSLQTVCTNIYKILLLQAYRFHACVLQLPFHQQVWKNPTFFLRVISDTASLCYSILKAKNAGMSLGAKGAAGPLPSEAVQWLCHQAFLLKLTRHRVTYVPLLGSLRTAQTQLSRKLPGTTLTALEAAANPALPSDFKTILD", "experiment": "Telomerase activity (qPCR)", "type": "cell-based", "details": "Rhodiola crenulata 100 μg/mL, tamoxifen 10 μM", "method": "FIGS. 16 and 17 show the effect of Rhodiola crenulata (100 μg/mL) and tamoxifen (10 μM) on telomerase activity in human MDA-MB-231 breast cancer cells at 24 hr and 72 hr, respectively.\nThe breast cancer cell lines MDA-MB-231, V14, 76N tert (an immortalized epithelial breast cancer cell line), and 76N p53 239 (immortalized by presence of a dominant negative p53 gene) were treated as indicated above for 24 hours at 100 μg/mL Rhodiola crenulata."}},
  "data": [
    {"compound": "CC1=C(/C=C/C(C)=C/C=C/C(C)=C/C(=O)O)C(C)(C)CCC1", "note": "[ATRA, all trans retinoic acid]", "values": [
      {"measurement": "chemosensitivity (MTS assay, absorbance at 490 nm)", "setting": "MDA-MB-231 Cells [1]; 1 μM or 10 μM ATRA, absence of Rhodiola crenulata", "value": "little difference in chemosensitivity"}
    ]},
    {"compound": "CC1=C(/C=C/C(C)=C/C=C/C(C)=C/C(=O)Nc2ccc(O)cc2)C(C)(C)CCC1", "note": "[HPR, N-(4-hydroxyphenyl) retinamide]", "values": [
      {"measurement": "chemosensitivity (MTS assay)", "setting": "MDA-MB-231 Cells [1]", "value": "Comparable effects"}
    ]},
    {"compound": "CC1=C(/C=C/C(C)=C\\C=C\\C(C)=C\\C(=O)O)C(C)(C)CCC1", "note": "[9-cis retinoic acid]", "values": [
      {"measurement": "chemosensitivity (MTS assay)", "setting": "MDA-MB-231 Cells [1]", "value": "Comparable effects"}
    ]},
    {"compound": "CC/C(=C(\\c1ccccc1)c1ccc(OCCN(C)C)cc1)c1ccccc1", "note": "[Tamoxifen, tamoxifen]", "values": [
      {"measurement": "percentage of cell death", "setting": "MDA-MB-231 Cells [2]; 24 hours", "value": "increased the percentage of cell death"},
      {"measurement": "percentage of cell death", "setting": "MDA-MB-231 Cells [2]; 48 hours", "value": "increased the percentage of cell death"},
      {"measurement": "telomerase activity", "setting": "[3]; 24 hr", "value": "inhibited telomerase activity"},
      {"measurement": "telomerase activity", "setting": "[3]; 72 hr", "value": "telomerase activity is starting to return"}
    ]}
  ]
}
